Measured values reported in patent publication US4880809A, “1,4-disubstituted piperazines (or homopiperazines) as platelet-activating factor antagonists” (Takeda Chemical Industries, Ltd., priority 1987, dated 1989).
Where a name gives a salt, the structure may show the parent alone.

Experiments:
[1] = tested on: PAF-Induced Platelet Aggregation; experiment: Inhibitory Action on PAF-Induced Platelet Aggregation; type: cell-based, New Zealand white male rabbits; settings: Oryctolagus cuniculus, Drug Concentration: 3 × 10^-5 M, rabbit PRP
Experimental: Blood was collected from the hearts of conscious New Zealand white male rabbits weighing 2 to 3 kg using citric acid as an anticoagulant (one volume part of 3.15% citric acid per 9 volume parts of the whole blood). The blood was subjected to a centrifuge at 800 rpm for ten minutes to obtain platelet rich plasma (PRP). The remaining blood after collecting the PRP was subjected to a centrifuge at 3000 rpm for ten minutes to obtain platelet poor plasma (PPP). PRP was diluted with PPP, and the number of platelets was adjusted to 500,000/μl. Platelet aggregation was examined by means of turbidimetry [Born, Nature, 194, 927-929 (1962)] with 8 channel aggregometer (NBS HEMA TRACER 6 Nikoh, Bioscience, Japan). More concretely, PRP (250 μl) was kept warm (37° C.) for three minutes in a silicon-processed cuvette, to which was added a test sample (25 μl) dissolved in a physiological saline or in 10mM dimethylsulfoxide followed by dilution with a physiological saline. Two minutes later, PAF (25 μl, 3×10^-9 -1×10^-8 M), dissolved in a physiological saline, was added and then the maximum aggregation rate was determined. As the control, physiological saline without test sample was added to the cuvette, and the inhibitory rate thereon was determined.

PAF-Induced Hypotension = experiment: Inhibitory Action on PAF-Induced Hypotension; type: in vivo, SD (Jcl) male rats; settings: po, rat; for inhibition in vivo at 30 mg/kg: 30 mg/kg p.o.; for inhibition in vivo at 3 mg/kg: 3 mg/kg p.o.; for inhibition in vivo at 10 mg/kg: 10 mg/kg p.o.
Experimental: SD (Jcl) male rats of 6 to 8 week old were subjected to the experiment. After fasting overnight, the rats were cannulated into the femoral artery and vein under anesthesia with pentobarbital. A transducer (MPU-0.5-290O-III, TOYO BALDWIN, Japan) was connected with the artery cannula, and blood pressure was continuously measured. […] The rate of inhibition of lowering of blood pressure after administration of the test samples against the control was evaluated.

COc1ccc2c(c1)CCC(C(=O)N1CCN(Cc3cc(OC)c(OC)c(OC)c3)CC1)=C2 [Example 1, 1-(7-methoxy-1,2-dihydro-3-naphthoyl)-4-(3,4,5-trimethoxybenzyl)piperazinehydrochloride]
inhibition at 30 µM [1]: 100%

COc1cc(CN2CCN(C(=O)c3ccc4ccccc4c3)CC2)cc(OC)c1OC [Example 7, 1-(2-naphthoyl)-4-(3,4,5-trimethoxybenzyl)piperazine hydrochloride]
inhibition at 30 µM [1]: 95%

COc1cc(CN2CCN(C(=O)c3cccc4ccccc34)CC2)cc(OC)c1OC [Example 8, 1-(1-naphthoyl)-4-(3,4,5-trimethoxybenzyl)piperazine hydrochloride]
inhibition at 30 µM [1]: 84%

COc1ccc2cc(C(=O)N3CCN(Cc4cc(OC)c(OC)c(OC)c4)CC3)ccc2c1 [Example 9, 1-(6-methoxy-2-naphthoyl)-4-(3,4,5-trimethoxybenzyl)piperazine hydrochloride]
inhibition at 30 µM [1]: 87%

COc1cc(CN2CCN(C(=O)C3=Cc4cc(OC)c(OC)c(OC)c4CC3)CC2)cc(OC)c1OC [Example 10, 1-(6,7,8-trimethoxy-1,2-dihydro-3-naphthoyl)-4-(3,4,5-trimethoxybenzyl)piperazine hydrochloride]
inhibition at 30 µM [1]: 87%

COc1cc2c(cc1OC)CC(C(=O)N1CCN(C(=O)c3cc(OC)c(OC)c(OC)c3)CC1)=C2 [Example 61, 1-(5,6-dimethoxy-1-H-inden-2-ylcarbonyl)-4-(3,4,5-trimethoxybenzoyl)piperazine]
inhibition in vivo at 30 mg/kg (PAF-Induced Hypotension; after 1 hr): 86% | inhibition in vivo at 30 mg/kg (PAF-Induced Hypotension; after 2 hrs): 82% | inhibition in vivo at 30 mg/kg (PAF-Induced Hypotension; after 4 hrs): 74%

CCOc1cc2c(cc1OCC)CCCC(C(=O)N1CCN(C(=O)c3cc(OC)c(OC)c(OC)c3)CC1)=C2 [Example 73, 1-(2,3-diethoxy-6,7-dihydro-5H-benzocyclohepten-8-ylcarbonyl)-4-(3,4,5-trimethoxybenzoyl)piperazine]
inhibition in vivo at 30 mg/kg (PAF-Induced Hypotension; after 1 hr): 98% | inhibition in vivo at 30 mg/kg (PAF-Induced Hypotension; after 2 hrs): 98% | inhibition in vivo at 30 mg/kg (PAF-Induced Hypotension; after 4 hrs): 96%

CCOc1c(OC)cc(C(=O)N2CCN(C(=O)C3=Cc4cc(OC)c(OC)cc4CCC3)CC2)cc1OC [Example 75, 1-(2,3-dimethoxy-6,7-dihydro-5H-benzocyclohepten-8-ylcarbonyl)-4-(3,5-dimethoxy-4-ethoxy-benzoyl)piperazine]
inhibition in vivo at 30 mg/kg (PAF-Induced Hypotension; after 1 hr): 61% | inhibition in vivo at 30 mg/kg (PAF-Induced Hypotension; after 2 hrs): 54% | inhibition in vivo at 30 mg/kg (PAF-Induced Hypotension; after 4 hrs): 61%

COc1cc2c(cc1OC)CCCC(C(=O)N1CCN(C(=S)c3cc(OC)c(OC)c(OC)c3)CC1)=C2 [Example 76, 1-(2,3-dimethoxy-6,7-dihydro-5H-benzocyclohepten-8-ylcarbonyl)-4-(3,4,5-trimethoxythiobenzoyl)piperazine]
inhibition in vivo at 3 mg/kg (PAF-Induced Hypotension; after 1 hr): 72% | inhibition in vivo at 3 mg/kg (PAF-Induced Hypotension; after 2 hrs): 69% | inhibition in vivo at 3 mg/kg (PAF-Induced Hypotension; after 4 hrs): 60% | inhibition in vivo at 30 mg/kg (PAF-Induced Hypotension; after 1 hr): 100% | inhibition in vivo at 30 mg/kg (PAF-Induced Hypotension; after 2 hrs): 100% | inhibition in vivo at 30 mg/kg (PAF-Induced Hypotension; after 4 hrs): 100%

COc1cc(C(=O)N2CCN(C(=O)C3=Cc4ccc(OC)c(OC)c4CCC3)CC2)cc(OC)c1OC [Example 78, 1-(3,4-dimethoxy-6,7-dihydro-5H-benzocyclohepten-8-ylcarbonyl)-4-(3,4,5-trimethoxybenzoyl)piperazine]
inhibition in vivo at 30 mg/kg (PAF-Induced Hypotension; after 1 hr): 73% | inhibition in vivo at 30 mg/kg (PAF-Induced Hypotension; after 2 hrs): 57% | inhibition in vivo at 30 mg/kg (PAF-Induced Hypotension; after 4 hrs): 26%

COc1cc2c(cc1OC)CC(C(=O)N1CCN(C(=O)c3cc(OC)c(OC)c(OC)c3)CC1)CC2 (centres unmarked) [Example 79]
inhibition in vivo at 30 mg/kg (PAF-Induced Hypotension; after 1 hr): 81% | inhibition in vivo at 30 mg/kg (PAF-Induced Hypotension; after 2 hrs): 88% | inhibition in vivo at 30 mg/kg (PAF-Induced Hypotension; after 4 hrs): 66%

COc1cc2c(cc1OC)CC(C(=O)N1CCN(C(=O)c3cc(OC)c(OC)c(OC)c3)CC1)CCC2 (centres unmarked) [Example 86, 1-(2,3-dimethoxy-5,6,7,8-tetrahydrobenzocyclohepten-6-ylcarbonyl)-4-(3,4,5-trimethoxy-benzoyl)piperazine]
inhibition in vivo at 10 mg/kg (PAF-Induced Hypotension; after 1 hr): 90% | inhibition in vivo at 10 mg/kg (PAF-Induced Hypotension; after 2 hrs): 92% | inhibition in vivo at 10 mg/kg (PAF-Induced Hypotension; after 4 hrs): 92% | inhibition in vivo at 30 mg/kg (PAF-Induced Hypotension; after 1 hr): 100% | inhibition in vivo at 30 mg/kg (PAF-Induced Hypotension; after 2 hrs): 100% | inhibition in vivo at 30 mg/kg (PAF-Induced Hypotension; after 4 hrs): 100%
